Experimental data published in ChEMBL document CHEMBL1201862, “PubChem BioAssay data set” (2004).
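Method: 48-hour compound exposure of cells in 96-well plates, five concentrations, linear interpolation of endpoints. At the GI50, growth is halved.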 Active and inactive are the calls of the source. Cut-off read from the data, not from the text of the source: active = GI50 up to about 1.1 µM and inactive = higher.

Tests used:
Experiment in all cases: NCI anticancer screen, dose series, 48 h
[1] = system: A549
[2] = system: NCI-H23
[3] = system: TK-10
[4] = system: ACHN
[5] = system: SK-MEL-5
[6] = system: CCRF-CEM
[7] = system: NCI-H460
[8] = system: SF-268
[9] = system: HCC 2998
[10] = system: HOP-92
[11] = system: K562
[12] = system: EKVX
[13] = system: HCT-116
[14] = system: SF-539
[15] = system: Malme-3M
[16] = system: OVCAR-3
[17] = system: HCT-15
[18] = system: COLO 205
[19] = system: CAKI-1
[20] = system: A498

| Structure (SMILES) | GI50 [1] | GI50 [2] | GI50 [3] | GI50 [4] | GI50 [5] | GI50 [6] | GI50 [7] | GI50 [8] | GI50 [9] | GI50 [10] | GI50 [11] | GI50 [12] | GI50 [13] | GI50 [14] | GI50 [15] | GI50 [16] | GI50 [17] [µM] | GI50 [18] | GI50 [19] | GI50 [20] |
| --- | --- | --- | --- | --- | --- | --- | --- | --- | --- | --- | --- | --- | --- | --- | --- | --- | --- | --- | --- | --- |
| CC1=NN(c2ccccc2)C(=O)C1/N=N/c1ccc(Br)c(C)c1 (stereo not given) | > 100 µM (inactive) | > 100 µM (inactive) | > 100 µM (inactive) | > 100 µM (inactive) | > 100 µM (inactive) | 55.7 µM (inactive) | > 100 µM (inactive) | > 10 µM (inactive) | > 100 µM (inactive) | > 100 µM (inactive) | > 100 µM (inactive) | > 100 µM (inactive) | > 100 µM (inactive) | > 100 µM (inactive) | > 100 µM (inactive) | > 100 µM (inactive) | > 100 | > 100 µM (inactive) | > 100 µM (inactive) | > 100 µM (inactive) |
| Nc1ccn(C2CCC(CO)O2)c(=S)n1 (stereo not given) | > 100 µM (inactive) | > 100 µM (inactive) | > 100 µM (inactive) | > 100 µM (inactive) | > 100 µM (inactive) | > 100 µM (inactive) | > 100 µM (inactive) | > 100 µM (inactive) | > 100 µM (inactive) | > 100 µM (inactive) | > 100 µM (inactive) | > 100 µM (inactive) | > 100 µM (inactive) | > 100 µM (inactive) | > 100 µM (inactive) | > 100 µM (inactive) | > 100 | > 100 µM (inactive) | > 100 µM (inactive) | > 100 µM (inactive) |
| COc1cc(OC)c(C/C=C/c2ccccc2)cc1O | 19.4 µM (inactive) | 17.4 µM (inactive) | 16.4 µM (inactive) | 25.7 µM (inactive) | 15.8 µM (inactive) | 22.1 µM (inactive) | 17.3 µM (inactive) | 16.7 µM (inactive) | 16.3 µM (inactive) | 13.6 µM (inactive) | 14.4 µM (inactive) | 17.2 µM (inactive) | 16.4 µM (inactive) | 16.2 µM (inactive) | 16.2 µM (inactive) | 14.7 µM (inactive) | 16.5 | 22 µM (inactive) | 21.5 µM (inactive) | 14.8 µM (inactive) |
| O=c1c(Br)cc2nc3ccccc3sc-2c1Br | > 94.8 µM (inactive) | 29.9 µM (inactive) | > 100 µM (inactive) | > 100 µM (inactive) | 29.5 µM (inactive) | 23.8 µM (inactive) | > 100 µM (inactive) | 72.1 µM (inactive) | > 100 µM (inactive) | 50 µM (inactive) | 18.7 µM (inactive) | > 74.6 µM (inactive) | > 100 µM (inactive) | > 83.9 µM (inactive) | > 100 µM (inactive) | 16.9 µM (inactive) | > 68.7 | 36.3 µM (inactive) | > 100 µM (inactive) | > 100 µM (inactive) |
| COc1ccc(C(CC(C)=O)c2c(O)c3ccccc3oc2=O)cc1OC (stereo not given) | > 100 µM (inactive) | > 100 µM (inactive) | > 100 µM (inactive) | > 100 µM (inactive) | > 100 µM (inactive) | > 100 µM (inactive) | > 100 µM (inactive) | > 100 µM (inactive) | > 100 µM (inactive) | > 100 µM (inactive) | > 100 µM (inactive) | > 100 µM (inactive) | > 100 µM (inactive) | > 100 µM (inactive) | > 100 µM (inactive) | > 100 µM (inactive) | > 100 | > 100 µM (inactive) | > 100 µM (inactive) | > 100 µM (inactive) |
